Measurements from patent publication US20260227303A1, “SYSTEMS AND METHODS FOR MEASURING PARTICLE SIZE IN TISSUE AND TURBID MEDIA” (The General Hospital Corporation, priority 2023, published 2026).

Test system: platelets in whole blood
Assay: Platelet function testing: laser speckle particle sizing of platelet aggregate size in lysed whole blood
Type: cell-based, human
Experimental: To prepare the 4660 μM CPD stock solution, a Plavix tablet (e.g., 75 mg, Bristol-Meyer Squibb) was crushed to powder, mixed with 50 ml of deionized water, sonicated for 10 minutes, and incubated at 50° C. in a water bath for 3 minutes. Following institutional review board (IRB) approval, de-identified blood specimens from two patients undergoing routine coagulation testing were collected in 0.105 M sodium citrate vacutainer system (e.g., Becton & Dickinson, Co., Franklin Lakes, NJ, USA) from the MGH special coagulation laboratory. The specimen was divided into four samples of 66 μl. The first sample (control) was mixed with 20 μl of saline. The second sample was mixed 5 μl of saline and 10 μl of LB. The third sample was mixed with 5 μl of saline and 10 μl of LB, and 5 μl ADP stock solution (e.g., 5 μM, Helena Laboratories, Beaumont, TX, USA). Finally, the 4th and last sample was mixed 10 μl of LB 5 μl of ADP and 5 μl of diluted CPD (5 μM). The samples were loaded in imaging chambers and speckle image acquisition started promptly. For each of the specimens, both the parallel and perpendicularly polarized speckle frames were captured for 1 second, at 750 fps.
The third sample entailed 66 μl of whole blood plus 5 μl of PBS, 10 μl of lysis buffer, and 5 μl Adenosine diphosphate (ADP), a platelet agonist to initiate platelet aggregation. […]

Row | Structure (SMILES) | estimated particle size (average radius) (66 μl whole blood + 5 μl PBS/saline + 10 μl RBC lysis buffer + 5 μl ADP, lysed blood without ADP 360 nm, increase likely reflects platelet aggregation) | estimated particle size (average radius) (66 μl whole blood + 10 μl RBC lysis buffer + 5 μl ADP + 5 μl CPD, reverts to the lysed-blood level (360 nm), potentially indicating disaggregation of platelets)
1 | Nc1ncnc2c1ncn2[C@@H]1O[C@H](COP(=O)(O)OP(=O)(O)O)[C@@H](O)[C@H]1O [ADP, Adenosine diphosphate] | 1.8 μm | –
2 | COC(=O)[C@H](c1ccccc1Cl)N1CCc2sccc2C1 [CPD, clopidogrel bisulphate] | – | 367 nm
